According to patent publication US6730655B2, “Biphenyl diquaternary ammonium compounds” (Ciba Specialty Chemicals Corporation, priority 2000, dated 2004):

What was measured:
[1] = tested on: Aspergillus niger ATCC 6275; settings: Sabouraud agar, 3 days at 28° C.
Method: (§1) Determination of the Minimum Inhibitory Concentration (MIC Value)
(§2) The procedure to determine the antimicrobial activity of the compounds of the invention is as follows:
Sabouraud agar for the pre-culture of Aspergillus niger.
(§3) Sabouraud agar for determining the MIC value of Aspergillus niger and Candida albicans.
(§4) deionised water or EtOH as solvent.
(§5) The test substances are predissolved in deionised water or in ethanol and incorporated in a dilution series in agar warmed to 47-50° C.
The mould is cultured on Sabouraud agar and rinsed off with 0.85% sodium chloride solution containing 0.01% Triton X-100.
(§6) All the test organisms are adjusted to an organism count of from 10^6 to 10^7 CFU/ml using 0.85% sodium chloride solution.
(§7) The organism suspensions are each pipetted in an amount of 10 μl onto an agar plate containing the test substance. The test batches are then incubated for 2 days at 37° C. (bacteria and yeast) or for 3 days at 28° C. (Aspergillus niger). In order to check the influence of the solvent used (deionised water, ethanol), organism suspensions are in addition incubated on agar plates without test substances (control plates).
(§8) After incubation, the growth of the microorganisms on the test substances is compared with the control plates. The minimum inhibitory concentration (MIC value) is the concentration of substance at which (compared with the control plates) a clear inhibition of growth of the test organisms is to be ascertained.
(§9) The microbiological data ascertained are compiled in Table 1.

[2] = tested on: Escherichia coli NCTC 8196; settings: Mueller Hinton agar, 2 days at 37° C.
Description: as §1, §2
(§10) Casein/soybean flour peptone bouillon for the preparation of pre-cultures of the test bacteria and yeast.
(§11) Mueller Hinton agar for determining the MIC value of bacteria.
as §4, §5
(§12) Bacteria and yeast are incubated for from 18 to 24 hours at 37° C. in casein/soybean flour peptone bouillon.
as §6, §7, §8, §9

[3] = tested on: Staphylococcus hominis DSM 20328; settings: Mueller Hinton agar, 2 days at 37° C.
Description: as §1, §2, §10, §11, §4, §5, §12, §6, §7, §8, §9

[4] = tested on: Candida albicans ATCC 10231; settings: Sabouraud agar, 2 days at 37° C.
Description: as §1, §2, §10, §3, §4, §5, §12, §6, §7, §8, §9

[5] = tested on: Staphylococcus aureus ATCC 6538; settings: test substance 1600 ppm, contact time 5 minutes at 20° C., 0.3% bovine serum albumin
Method: Suspension Test to Determine the Bactericidal Activity in Accordance with the European Standard According to EN 1276
Staphylococcus aureus ATCC 6538.
5 minutes at 20° C. (+/−1° C.).
Inactivation Medium After the Contact Time
D/E neutralisation solution (Dey-Engley, consisting of 0.1% sodium thioglycolate,
0.5% Tween 80, and also 0.7% lecithin and sterile, deionised water ad 100%).
Casein/soybean flour peptone agar with lecithin, L-histidine, and Tween 80 as inactivating agent
(Merckoplate No. 18360, Merck-Darmstadt).
Incubation of the Test Plates
Precaration of the Pre-Culture
The bacteria cultures are cultured on casein/soybean flour peptone slant agar and incubated for from 18 to 24 hours at 37° C. They are then rinsed off with water and adjusted to a bacteria count of 1.5×10^8-5×10^8 CFU/ml.
All of the reagents required for the test are first equilibrated at 20° C. (+/−1° C.). 1.0 ml of 0.3% bovine serum albumin (in deionised water) is introduced into a test tube. After the addition of 1.0 ml of bacteria suspension (1.5×10^8-5×10^8 CFU/ml), the solution is mixed and maintained at 20° C. for 2 minutes (+/−10 seconds). 8.0 ml of the test substance (2000 ppm solution in water) are then added. The mixture is incubated for 5 minutes at 20° C. (+/−1° C.). […] After the period of incubation, the number of colonies is counted and quoted as a logarithmic reduction (log 10) of the bacteria.

SMILES	MIC values A. niger [1]	MIC values E. coli [2]	MIC values S. hominis [3]	MIC values C. albicans [4]	Logarithmic reduction Staphylococcus aureus [5]
CCCCCCCCCCCCCCCC[N+](C)(C)Cc1ccc(-c2ccc(C[N+](C)(C)CCCCCCCCCCCCCCCC)cc2)cc1.[Cl-].[Cl-] [Compound of formula (5), 4,4′-Bis(N,N-dimethyl-N-hexadecyl-ammoniummethyl)biphenyl dichloride]	1000 ppm	1000 ppm	100 ppm	500 ppm	
CCCCCC[N+](C)(C)Cc1ccc(-c2ccc(C[N+](C)(C)CCCCCC)cc2)cc1.[Cl-].[Cl-] [Compound of formula (2), 4,4′-Bis(N,N-dimethyl-N-hexyl-ammoniummethyl)biphenyl dichloride]	2.5 ppm	5 ppm	50 ppm	50 ppm	5.6 log 10
CCCCCCCCCCCC[N+](C)(C)Cc1ccc(-c2ccc(C[N+](C)(C)CCCCCCCCCCCC)cc2)cc1.[Cl-].[Cl-] [Compound of formula (4), 4,4′-Bis(N,N-dimethyl-N-dodecyl-ammoniummethyl)biphenyl dichloride]	100 ppm	250 ppm	10 ppm	25 ppm	
CCCCCCCC[N+](C)(C)Cc1ccc(-c2ccc(C[N+](C)(C)CCCCCCCC)cc2)cc1.[Cl-].[Cl-] [Compound of formula (3), 4,4′-Bis(N,N-dimethyl-N-octyl-ammoniummethyl)biphenyl dichloride]	2.5 ppm	1 ppm	5 ppm	10 ppm	5.6 log 10
